Assay results as given in patent US12560588B2, “High-efficiency screening method for RNA-targeting drugs using nanopores” (KOREA RESEARCH INSTITUTE OF BIOSCIENCE AND BIOTECHNOLOGY, priority 2020, dated 2026).

Key:
ARS = assay: 1D CPMG ligand-observed NMR; details: absence vs presence of ARS
3′L-iav-RNA = format: binding, influenza A virus
5′L-iav-RNA = format: binding, influenza A virus
[1] = test system: adenine-sensing riboswitch (ARS); assay: α-hemolysin nanopore measurement of ARS with ligand; format: binding, Vibrio vulnificus; details: for dwell time relative to free ARS: type-II translocation event, individual compounds
Experimental: RNAs were synthesized by Integrated DNA Technologies (Coralville, IA, USA). All RNAs were dialyzed against 10 mM potassium phosphate (pH 6.2) buffer for at least 12 hours. After heating RNAs at 95° C. for 5 minutes, it was cooled quickly in the ice and annealed. The nanopore experiment was performed at RNA concentration of 10 to 500 nm. α-hemolysin (α-HL) protein was purchased from List Biological Laboratories Inc. (CAMPBELL, CA, USA). 1,2-diphytanoylsn-glycero-3-phosphocholine(DPhPC) was purchased from Avanti Polar Lipids (Alabaster, Al, USA).
Specifically, in the buffer containing 10 mM potassium phosphate (pH 6.2), 2 mM MgCl2 and 1M KCl, free ARS or ARS-adenine complex was added to the cis face of a lipid bilayer with a single α-HL nanopore. If the voltage of (+) 100 mV is applied on the nanopore, the free ARS or the ARS-adenine complex is driven by electrophoresis to block the ion current. The nanopore events of the free ARS and ARS-adenine complex were statistically analyzed (a to c in FIG. 2).
The average I/I0 value of level 1 (III1) of the type-II event is 0.45, which corresponds to about 50% of level 2 (III2). After separating the types I and II nanopore events of the complex, each type of event was statistically analyzed. The type I and II events of the ARS-adenine complex is different in the average value and dwell time of I/I0 ((b) to (c) in FIG. 3).

[2] = test system: PreQ1-sensing riboswitch (PreQ1 rs); assay: α-hemolysin nanopore measurement of PreQ1 rs with PreQ1; format: binding
Experimental: The PreQ1 rs is synthesized by Integrated DNA Technologies (Coralville, IA, USA). The PreQ1 rs used in the test was designed by adding GG sequences to the 5′ end of the 34nt basic aptamer sequences for the ease of secondary verification (NMR analysis, etc.) of the riboswitch structural change by binding of the PreQ1 ligand. The PreQ1 rs RNAs were dialyzed against 10 mM potassium phosphate (pH 6.2) buffer for at least 12 hours. After heating RNAs at 95° C. for 5 minutes, it was cooled quickly in the ice and annealed. All nanopore tests were performed at 500 nM concentration.
Specifically, in the buffer containing 10 mM potassium phosphate (pH 6.2) and 1M KCl, 500 nM of free PreQ1 rs was added to the cis face of a lipid bilayer with the α-HL nanopore. It was observed that the PreQ1 rs was driven by electrophoresis to block the ion current if the (+) voltage was applied on the nanopore.
Since then, to confirm whether the interaction of ligands can be detected at a single molecule level, the PreQ1 rs-PreQ1 complex was added to the cis face of the lipid bilayer with the nanopore in the buffer containing 10 mm phosphate (pH 6.2) and 1M KCl. When the (+) voltage is applied to the nanopore, the ion current is blocked as the PreQ1 rs-PreQ1 complex enters the nanopore by electrophoresis. In the current blockade event of the PreQ1 rs-PreQ1 complex, both type A and type B events were observed, and active nanopore current traces were confirmed (FIG. 17, bottom panel).

TPP riboswitch (TRS) = format: binding
[3] = test system: adenine-sensing riboswitch (ARS); assay: 1D 1H NMR of ARS with adenine; details: high salt concentration (1M KCl)

Question: For `Oc1cc(O)c2c(c1)O[C@H](c1ccc(O)c(O)c1)[C@H](O)C2` [(−)-epicatechin], which “binding to ARS by 1D CPMG” value (ARS) is on record?
Answer: non-binding

Question: Which “binding to ARS by 1D CPMG” value (ARS) does the source give for `Nc1ncnc2c1ncn2[C@@H]1O[C@H](COP(=O)(O)OP(=O)(O)OP(=O)(O)O)[C@@H](O)[C@H]1O` [ATP] here?
Answer: non-binding

Question: What does the source list for `COc1cc2nc(N3CCNCC3)nc(N)c2cc1OC` [DPQ, 6,7-dimethoxy-2-(1-piperazinyl)-4-quinazolinamine]?
Answer: nanopore average dwell time (3′L-iav-RNA): 9.52 ms; average nanopore dwell time (5′L-iav-RNA): 1.14 ms; dwell time (5′L-iav-RNA): 1.47 ms

Question: For `O=C(/C=C/c1ccc(O)c(O)c1)O[C@@H]1[C@H](O)C[C@@](O)(C(=O)O)C[C@H]1OC(=O)/C=C/c1ccc(O)c(O)c1` [NC1, 3,4-dicaffeoylquinic acid], which “binding to ARS by 1D CPMG” value (ARS) is on record?
Answer: definite binding

Question: And the “nanopore event type observed” value ([1]; ARS with ligand)?
Answer: types II translocation event

Question: And the “dwell time relative to free ARS” value [1]?
Answer: more than twice

Question: How did the “binding to ARS by 1D CPMG” value (ARS) turn out when `O=C(/C=C/c1ccc(O)c(O)c1)O[C@H]1[C@H](O)C[C@](O)(C(=O)O)C[C@H]1OC(=O)/C=C/c1ccc(O)c(O)c1` [NC2, 4,5-dicaffeoylquinic acid] was run?
Answer: definite binding

Question: And the “nanopore event type observed” value ([1]; ARS with ligand)?
Answer: types II translocation event

Question: And the “dwell time relative to free ARS” value [1]?
Answer: more than twice

Question: With `O=C(O)[C@H]1O[C@@H](Oc2cc(O)c3c(=O)cc(-c4ccc(O)c(O)c4)oc3c2)[C@H](O)[C@@H](O)[C@@H]1O` [NC4, luteolin-7-glucuronide] as the compound, how does the “binding to ARS by 1D CPMG” value (ARS) read?
Answer: definite binding

Question: What about the “nanopore event type observed” value ([1]; ARS with ligand) of the same compound?
Answer: types II translocation event

Question: What about the “dwell time relative to free ARS” value [1] of the same compound?
Answer: more than twice

Question: Which results are given for `NCC1C=Nc2nc(N)[nH]c(=O)c21` (stereo not shown) [PreQ1, 7-aminomethyl-7-deazaguanine]?
Answer: type A event rate ([2]; PreQ1 rs-PreQ1 complex): 26.5%; type B event rate ([2]; PreQ1 rs-PreQ1 complex): 73.5%; type B event rate increase versus free PreQ1 rs ([2]; ligand-bound state): about 1.5 times

Question: Which results are given for `Cc1ncc(C[n+]2csc(CCO[P@](=O)(O)OP(=O)(O)O)c2C)c(N)n1` [TPP, thiamine pyrophosphate]?
Answer: average dwell time (TPP riboswitch (TRS)): 0.22 ms; dwell time of type-I event (TPP riboswitch (TRS)): 0.21 ms; dwell time of type-II event (TPP riboswitch (TRS)): 4.37 ms; type-II dwell time increase versus free TRS (TPP riboswitch (TRS)): 1.3 times; type-II event rate (TPP riboswitch (TRS)): 14.3%; type-II event rate increase versus free TRS (TPP riboswitch (TRS)): 1.6 times

Question: Which results are given for `Nc1ncnc2nc[nH]c12` [adenine]?
Answer: nanopore event type observed ([1]; ARS with ligand): mixture of the type I and type-II events; average dwell time (td) ([1]; ARS with ligand, all events, +100 mV, 1M KCl): 0.63 ms; dwell time of the type-I event (tI) ([1]; ARS-adenine complex): 0.28 ms; dwell time of the type-II event (tII) ([1]; ARS-adenine complex): 2.14 ms; nanopore dwell time of the type-II event (tII) ([1]; adenine added to MIX-3): 2.52 ms; type-II dwell time relative to free ARS ([1]; adenine added to MIX-3): up to 6.6 times; type-II dwell time relative to the type-I event ([1]; adenine-bound ARS): 7.64 times; binding to ARS by imino proton peaks [3]: bound

Question: Which “binding to ARS by 1D CPMG” value (ARS) does the source give for `NCCCS(=O)(=O)O` [tramiprosate] here?
Answer: non-binding

Question: How did the “average nanopore dwell time” value (5′L-iav-RNA) turn out when Neomycin was run?
Answer: 3.48 ms

Question: What about the “dwell time increase versus free viral RNA” value (5′L-iav-RNA) of the same compound?
Answer: about 8.1 times
